# Test results: ChEMBL document CHEMBL1201862, “PubChem BioAssay data set” (2004)
# The source made the active and inactive calls.
# What was measured:
# [1] = biological target: T1, Kappa-type opioid receptor (Homo sapiens, UniProt P41145); test: kappa opioid receptor blockers, image-based, SAR follow-up (AID 2348); type: functional
# [2] = biological target: T1, Kappa-type opioid receptor; test: kappa opioid receptor activation potency – imaging, image-based, SAR follow-up (AID 2359); type: functional
# [3] = biological target: T2, Delta-type opioid receptor (Homo sapiens, UniProt P41143); test: delta opioid receptor blockers – image-based, SAR follow-up (AID 2357); type: functional
# Mu-type opioid receptor [4] = biological target: T3, Mu-type opioid receptor (Homo sapiens, UniProt P35372); test: HTS Image-Based Screen for Agonists of the MOR Receptor. [Related pubchem assays (depositor defined):AID1777, AID1785, AID1786, AID2133]; type: functional
# [5] = biological target: T1, Kappa-type opioid receptor; test: kappa opioid receptor blockers, cell-based, luminescence, beta-arrestin, SAR follow-up (AID 2285); type: functional
# [6] = biological target: T2, Delta-type opioid receptor; test: HTS Image-Based Screen for Antagonists of the DOR Receptor. [Related pubchem assays (depositor defined):AID1777, AID1785, AID1786, AID2133]; type: functional
# [7] = biological target: T2, Delta-type opioid receptor; test: HTS Image-Based Screen for Agonists of the DOR Receptor. [Related pubchem assays (depositor defined):AID1777, AID1786, AID2133]; type: functional
# [8] = biological target: T1, Kappa-type opioid receptor; type: functional
# [9] = biological target: T1, Kappa-type opioid receptor; type: functional; remark: listed apart in the source
# Mu-type opioid receptor [10] = biological target: T3, Mu-type opioid receptor; test: mu opioid receptor blockers – image-based, SAR follow-up (AID 2420); type: functional;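 further: compounds added before stimulation of receptor with agonist DAMGO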
# Mu-type opioid receptor [11] = biological target: T3, Mu-type opioid receptor; test: mu opioid receptor activators, image-based, SAR follow-up (AID 2352); type: functional
# [12] = biological target: T2, Delta-type opioid receptor; test: DOR agonists, SAR follow-up, image-based (AID 2370); type: functional
# Beta-galactosidase [13] = biological target: T4, Beta-galactosidase (Escherichia coli, UniProt Q8VNN2); type: functional
# [14] = biological target: T5, Runt-related transcription factor 1/Core-binding factor subunit beta (Homo sapiens, UniProt Q01196+Q13951); test: disruptors of Runt domain/CBFb-SMMHC interaction – biochemical, FRET, Cerulean-Runt, Venus-CBFb-SMMHC, uHTS, […] (AID 1434); type: protein assay
# Troponin, cardiac muscle = Troponin, cardiac muscle (Homo sapiens, UniProt P19429+P45379+P63316); test: Fluorescence-based biochemical high throughput dose response assay for activators of the calcium sensitivity of cardiac Regulated Thin Filaments (RTF). [Related pubchem assays (depositor defined):AID493008, AID493018, AID504382, AID504383]; type: protein-complex assay
# [15] = biological target: T6, Zinc finger protein mex-5 (Caenorhabditis elegans, UniProt Q9XUB2); test: potency of MEX-5 RNA-binding blockers – biochemical, C. elegans, fluorescence polarization, dose response (AID 1960)
# T6 sequence (Q9XUB2 whole entry): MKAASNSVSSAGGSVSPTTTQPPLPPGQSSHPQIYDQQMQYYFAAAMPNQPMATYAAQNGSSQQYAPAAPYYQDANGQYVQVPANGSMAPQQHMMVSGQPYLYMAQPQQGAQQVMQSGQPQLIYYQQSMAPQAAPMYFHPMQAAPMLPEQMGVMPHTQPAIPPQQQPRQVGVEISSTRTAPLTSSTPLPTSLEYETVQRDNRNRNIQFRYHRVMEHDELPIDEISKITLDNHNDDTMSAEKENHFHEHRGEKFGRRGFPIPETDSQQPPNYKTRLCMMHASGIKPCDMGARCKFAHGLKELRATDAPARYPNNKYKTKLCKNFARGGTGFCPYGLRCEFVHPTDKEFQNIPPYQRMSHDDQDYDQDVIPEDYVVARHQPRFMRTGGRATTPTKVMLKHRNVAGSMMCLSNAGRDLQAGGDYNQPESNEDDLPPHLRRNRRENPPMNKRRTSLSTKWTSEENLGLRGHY
# [16] = biological target: T5, Runt-related transcription factor 1/Core-binding factor subunit beta; test: Runt domain/CBFb-SMMHC interaction disruptors – biochemical, TR-FRET (AID 1438); type: protein assay
# [17] = biological target: T7, RNA-binding protein pos-1 (Caenorhabditis elegans, UniProt G5EF15); test: disruptors of C. elegans POS-1 RNA interaction – biochemical, fluorescence polarization, dose response (AID 1964);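 further: purified POS-1 fused to maltose binding protein made in E. coli; potency of compounds blocking POS-1 binding to fluorescent RNA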
# T7 sequence (G5EF15 whole entry): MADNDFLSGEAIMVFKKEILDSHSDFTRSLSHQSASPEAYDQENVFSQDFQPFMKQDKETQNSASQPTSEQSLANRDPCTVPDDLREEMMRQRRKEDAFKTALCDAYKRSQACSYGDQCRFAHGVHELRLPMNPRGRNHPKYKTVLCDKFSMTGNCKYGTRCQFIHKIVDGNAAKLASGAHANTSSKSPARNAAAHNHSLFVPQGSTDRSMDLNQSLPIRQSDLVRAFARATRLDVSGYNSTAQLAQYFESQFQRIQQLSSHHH
# [18] = biological target: Dual specificity protein phosphatase 6 (Rattus norvegicus, UniProt Q64346); test: inhibition of rat DUSP6 enzyme activity – biochemical, in vitro, primary screen (AID 425)
# [19] = biological target: T8, Dual specificity protein phosphatase 3 (Homo sapiens, UniProt P51452); test: VHR1 phosphatase inhibitors, primary screen, biochemical, absorbance, uHTS (AID 1654)
# [20] = biological target: Induced myeloid leukemia cell differentiation protein Mcl-1 (Homo sapiens, UniProt Q07820); type: functional
# [21] = biological target: T8, Dual specificity protein phosphatase 3; test: VHR1 phosphatase inhibitors, biochemical (AID 1878)
# [22] = decrease of insulin promoter-GFP reporter – imaging, high-content screening, mouse beta cells (AID 1628); type: functional; details: MIN6
# Hexokinase-1 = Hexokinase-1 (Homo sapiens, UniProt P19367); test: HK1 enzyme activation by HKDC1 hits – biochemical, selectivity assay for HKDC1 activator project, dose response (AID 504762); type: functional
# [23] = Trypanosoma cruzi growth suppression in host cells – NIH3T3 host cells, beta-gal luminescence, confirmation (AID 2044); type: functional, cell-based;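 further: intracellular parasites grown in NIH/3T3 mouse fibroblasts as host cells; luminescent beta-galactosidase reporter signal from transgenic T. cruzi replicating inside host cells; inhibitors lower the luminescence signal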
# [24] = biological target: T9, Type-1 angiotensin II receptor (Homo sapiens, UniProt P30556); test: antagonism of angiotensin II type 1 receptor – cell-based, uHTS hits, selectivity assay for APJ receptor antagonist project, dose response (AID 463214); type: functional;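 further: antagonist potency against angiotensin II stimulated AT1 response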
# T9 sequence (P30556 whole entry): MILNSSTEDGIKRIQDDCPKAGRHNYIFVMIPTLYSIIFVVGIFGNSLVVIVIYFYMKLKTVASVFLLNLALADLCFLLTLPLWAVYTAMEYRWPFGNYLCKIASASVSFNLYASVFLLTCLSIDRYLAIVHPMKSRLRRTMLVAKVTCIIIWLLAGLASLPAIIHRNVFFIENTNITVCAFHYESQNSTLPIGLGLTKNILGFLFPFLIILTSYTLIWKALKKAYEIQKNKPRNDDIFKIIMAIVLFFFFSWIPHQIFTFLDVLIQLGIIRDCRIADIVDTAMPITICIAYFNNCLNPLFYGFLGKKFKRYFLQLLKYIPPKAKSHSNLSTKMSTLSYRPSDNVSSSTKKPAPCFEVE
# Hexokinase HKDC1 = biological target: T10, Hexokinase HKDC1 (Homo sapiens, UniProt Q2TB90); test: activation of HKDC1 glucose phosphorylation – biochemical, W721R variant, dose response (AID 504730); type: functional
# T10 sequence (Q2TB90 whole entry): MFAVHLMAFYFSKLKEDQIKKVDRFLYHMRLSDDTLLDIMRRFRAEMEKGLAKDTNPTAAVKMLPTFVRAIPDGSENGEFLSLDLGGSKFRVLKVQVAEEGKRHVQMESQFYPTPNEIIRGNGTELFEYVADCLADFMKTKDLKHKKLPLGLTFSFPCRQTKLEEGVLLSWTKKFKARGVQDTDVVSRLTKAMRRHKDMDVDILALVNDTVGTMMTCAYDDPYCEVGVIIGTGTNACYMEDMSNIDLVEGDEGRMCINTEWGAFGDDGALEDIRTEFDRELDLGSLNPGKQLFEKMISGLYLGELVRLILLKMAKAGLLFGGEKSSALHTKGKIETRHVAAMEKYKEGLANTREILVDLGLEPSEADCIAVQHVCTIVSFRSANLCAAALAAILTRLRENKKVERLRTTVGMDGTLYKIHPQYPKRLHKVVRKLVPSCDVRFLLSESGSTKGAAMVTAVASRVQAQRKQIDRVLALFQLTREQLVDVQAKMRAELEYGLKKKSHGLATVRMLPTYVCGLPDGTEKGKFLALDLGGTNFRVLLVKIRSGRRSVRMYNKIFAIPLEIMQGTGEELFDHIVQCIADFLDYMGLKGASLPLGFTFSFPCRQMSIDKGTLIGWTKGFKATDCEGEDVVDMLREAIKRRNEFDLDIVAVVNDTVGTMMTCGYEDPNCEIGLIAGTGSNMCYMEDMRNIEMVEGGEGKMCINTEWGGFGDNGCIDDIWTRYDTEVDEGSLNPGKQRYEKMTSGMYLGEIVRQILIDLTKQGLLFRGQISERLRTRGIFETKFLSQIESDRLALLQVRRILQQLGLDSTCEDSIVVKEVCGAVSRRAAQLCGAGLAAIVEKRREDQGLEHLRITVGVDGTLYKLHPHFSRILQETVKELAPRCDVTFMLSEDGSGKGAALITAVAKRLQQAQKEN
# Beta-galactosidase [25] = biological target: T4, Beta-galactosidase; test: PubChem AID 485352; type: functional
# [26] = NIH3T3 cell viability loss – ATP luminescence, mouse fibroblasts, counter-screen, dose response (AID 2010); type: functional, cell-based;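 further: cells exposed to compound for about 90 hours before reading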
# [27] = MIN6 cell viability loss – mouse insulinoma, cytotoxicity control, dose response (AID 2122); type: functional;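 further: confirmatory high-throughput counterscreen run to flag cytotoxic compounds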
# Albumin = Albumin (Bos taurus, UniProt P02769); test: Counterscreen for inhibitors of T-cell receptor (TCR)-CD3 interaction: Fluorescence-based biochemical high throughput dose response assay to identify inhibitors of T-cell receptor (TCR)-CD3 interaction using a TAMRA-labeled BSA probe.; type: functional
# INS1 = test: INS-1E survival protection against cytokine death – cell-based, luminescence, retest, dose response (AID 449756); type: functional; details: Rattus norvegicus;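 further: cell death triggered by IL-1 beta plus TNF-alpha plus IFN-gamma mixture; protective hits raise ATP signal compared with cytokine alone wells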
# SUMO-activating enzyme [28] = biological target: T11, SUMO-activating enzyme (Homo sapiens, UniProt Q9UBT2); test: blockers of UBC9-mediated SUMO conjugation – biochemical, AlphaScreen, SUMOylation inhibitor project, confirmation (AID 2018); type: functional
# [29] = Luminescence Cell-Based Dose Retest to Confirm Inhibitors of Cancer Stem Cells. [Related pubchem assays (depositor defined):AID2717, AID2721]; type: functional; details: Homo sapiens
# cells [30] = type: functional, cell-based
# cells [31] = type: functional, cell-based; remark: listed apart in the source
# [32] = system: Streptococcus sp. 'group A'; test: Streptococcus pyogenes SK(-)GAS viability under kanamycin – luminescence, BacTiterGlo, confirmation, counter-screen for streptokinase expression inhibitor project, dose response (AID 1900); type: functional, organism-based
# SUMO-activating enzyme [33] = biological target: T11, SUMO-activating enzyme; test: blockers of SAE1/SAE2–UBC9 SUMO transfer – biochemical, HTRF, uHTS, primary screen (AID 2006); type: protein-complex assay
# Streptococcus = test: GAS UMAA2166 growth inhibition – luminescence, BacTiterGlo, counter-screen for streptokinase expression inhibitor project, dose response (AID 1915); type: functional, organism-based;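 further: potency for reduction of bacterial viability or growth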
smiles,measurement,setting,value
CCOc1ccc(C(=O)NC2CC3CCCC(C2)N3Cc2ccccc2)cc1 (centres undefined),IC50,[1],> 32 µM (inactive)
same,EC50,[2],> 32 µM (inactive)
same,IC50,[3],> 32 µM (inactive)
same,EC50,Mu-type opioid receptor [4],> 32 µM (inactive)
same,IC50,[5],> 10 µM (inactive)
same,IC50,[6],> 32 µM (inactive)
same,EC50,[7],> 32 µM (inactive)
same,IC50,[8],14.8 µM
same,IC50,[9],7.52 µM (active)
same,IC50,Mu-type opioid receptor [10],> 32 µM (inactive)
same,EC50,Mu-type opioid receptor [11],> 32 µM (inactive)
same,EC50,[12],> 32 µM (inactive)
same,EC50,Beta-galactosidase [13],> 31.5 µM (inactive)
CC(=O)c1ccc2cccc3c2c1NC(C)=N3,IC50,[14],3.05 µM (active)
same,EC50,"Troponin, cardiac muscle",17.3 µM (inactive)
same,EC50,[15],6.57 µM (active)
same,IC50,[16],> 100 µM (inactive)
same,EC50,[17],9.79 µM (active)
Cc1cc2nc(-c3ccc(SCc4ccc(C(=O)O)cc4)nc3)[nH]c2cc1C,IC50,[18],25.8 µM (active)
same,IC50,[19],13.9 µM (active)
same,IC50,[20],7.97 µM (active)
same,IC50,[21],5.73 µM (active)
Cc1ccc(N=Nc2ccc(O)c3ncccc23)cc1C,IC50,[22],2.41 µM (active)
same,EC50,Hexokinase-1,> 80 µM (inactive)
same,EC50,[23],1.13 µM (active)
same,IC50,[24],35.3 µM (not active)
same,EC50,Hexokinase HKDC1,21.7 µM (inactive)
same,EC50,Beta-galactosidase [25],> 40 µM (inactive)
same,EC50,[26],> 60 µM (inconclusive)
same,IC50,[27],1.66 µM (active)
O=c1c2ccccc2nc(COc2ccccc2)n1/N=C/c1cc([N+](=O)[O-])ccc1O,IC50,Albumin,> 94.1 µM (inactive)
same,AC50,INS1,3.74 µM (active)
same,IC50,SUMO-activating enzyme [28],990 nM (active)
same,AC50,[29],10.2 µM (active)
same,EC50,cells [30],22.8 µM (active)
same,EC50,cells [31],24.3 µM (active)
same,EC50,[32],5.71 µM (active)
same,IC50,SUMO-activating enzyme [33],32.1 µM (active)
same,EC50,Streptococcus,4.65 µM (active)
